The text below walks through data of patent US7355074B2, “Compounds having aromatic rings and side-chain amide-functionality and a method for transporting monovalent anions across biological membranes using the same” (The University of Maryland, priority 2003, dated 2008).

Experiment [1] is described as follows: pH-stat fluorescent transport assay with oligophenoxyacetamides (HPTS-loaded liposomes). The experiment is classed as biochemical. The procedure: FIGS. 1A and 1B are derived from of pH-stat fluorescent assays with oligophenoxyacetamide compounds 1-6 described herein. Suspensions of EYPC LUVs containing the pH sensitive dye pyranine (ex 405 nm and 460 nm em 510 nm) in a phosphate buffer were used (0.5 mM of lipid, 10 mM NanH3-nPO4 n=1, 2, pH 6.4 100 mM NaCl inside and outside) (A) illustrates initial pseudo-first order rate constants in the presence of 5 μm of ionophores 1-6 (1 mol % injection of 20 μl of 0.5 mM DMSO solution of 1-6 into 1.9 mL of vesicular suspension was followed by injection of 21 μl of 0.5 M NaOH and final lysis of liposomes with Triton X-100; (B) illustrates initial pseudo-first order rate constants assessed for various concentrations of oligomeric ionophores 2-6. The same experimental protocol as in (A) was used. Legend for traces denotes use of oligocompounds 2, 3, 4, 5, 6.
Liposome Preparation for Fluorimetric Assays. Egg yolk L-α-phosphatidylcholine (EYPC ethanol solution, […], 79 μmol) was dissolved in a CHCl3/MeOH mixture, the solution was evaporated under reduced pressure and the resulting thin film was dried under high vacuum for 2 h. The lipid film was hydrated in 1.2 mL of phosphate buffer (10 mM sodium phosphate, pH=6.4, 75-100 mM MnX, M=N^+, K^+, X=Cl^−, SO4^2−, n=1,2) containing 10 μM HPTS (pyranine, 8-hydroxypyrene-1,3,6-trisulfonic acid trisodium salt) for 40 min. During hydration, the suspension was submitted to 5 freeze-thaw cycle (liquid nitrogen, water at rt). The large multilamellar liposome suspension (1 mL) was submitted to high-pressure extrusion at rt (21 extrusions through a 0.1 μm polycarbonate membrane afforded a suspension of LUVs with an average diameter of 100 nm). The LUV suspension was separated from extravesicular dye by size exclusion chromatography (SEC) (stationary phase: Sephadex G-10, mobile phase: phosphate buffer) and diluted with the same phosphate buffer to give a stock solution with a lipid concentration of 11 mM (assuming 100% of lipid was incorporated into liposomes).
pH-state transport assays. Typically, 100 μL of HPTS-loaded vesicles (stock solution) was suspended in 1.9 mL of the corresponding buffer and placed into a fluorimetric cell. The emission of HPTS at 510 nm was monitored with excitation wavelengths at 403 and 460 nm simultaneously. During the experiment, 20 μL of a 0-10 mM DMSO solution of the compounds of interest was added (through an injection port), followed by injection of 21 μL of 0.5 M aqueous NaOH. […] Maximal possible changes in dye emission were obtained at the end of each experiment by lysis of the liposomes with detergent (40 μL of 5% aqueous Triton X100). The final transport trace was obtained as a ratio of the emission intensities monitored at 460 and 403 nm and normalized to 100% of transport. Pseudo-first order rate constants were calculated from slopes of the plot of In([H^+ins]−[H^+out]) versus time, here [H^+ins] and [H^+out] are the intravesicular and extravesicular proton concentrations, respectively. The [H^+out] was assumed to remain constant over the course of the experiment, while [H^+ins] values were calculated for each point from the HPTS emission intensities according to the calibration equation pH=1.1684·log(Io/Il)+6.9807, where Io is the emission intensity with excitation at 460 nm and Il is emission intensity with excitation at 403 nm. The calibration was performed by measuring the HPTS emission intensities and the pH values of a […] HPTS solution in 10 mM phosphate buffer containing 100 mM NaCl (see FIG. s3). The absolute values for rate constants varied depending on the age of the vesicular solution and the actual stock solution of liposomes used.

Experiment [2] in a line: pH-assisted fluorimetric transport assay with calixarene amides (HPTS-loaded liposomes). The experiment is classed as biochemical. Conditions: for ion transport in sulfate buffers: sodium sulfate-filled LUVs in isotonic solution, up to 50 μM. The procedure: The ability of 1 and 2 to mediate ion flux across a lipid bilayer was studied fluorimetrically. A solution of 1 or 2 was added to a suspension of EYPC large unilamellar vesicles (LUVs) containing the pH-sensitive dye pyranine. An NaOH solution was added to the extravesicular buffer to create a gradient of approximately one pH unit. The resulting electrostatic potential, caused by proton efflux from the liposomes, can be compensated by cation influx or anion efflux, as mediated by the exogenous ligand. Ion transport across the membrane was signaled by the increase in relative fluorescence that accompanied the rise in intravesicular pH.
Liposome Preparation. EYPC HPTS-Containing LUVs, egg yolk 1-α-phosphatidylcholine (EYPC, 60 mg, […]) was dissolved in a CHCl3MeOH mixture, the solution was evaporated under reduced pressure, and the resulting thin film was dried under high vacuum for 2 h. The lipid film was hydrated in 1.2 mL of phosphate buffer (10 mM sodium phosphage, pH=6.4, 75-100 mM MX, M=Na^+, K^+, Cs^+, X=[…], SO4^2−) containing 10 μM HPTS (pyranine 8-hydroxypyrene-1,3,6-trisulfonic acid trisodium salt) for 2 h. The LUV suspension (1 mL) was submitted to high-pressure extrusion at room temperature (2) extrusions through a 0.1 μM polycarbonate membrane afforded LUVs with a diameter of 100 nm). The LUV suspension was separated from extravesicular dye by size exclusion chromatography (SEC) stationary phase: Sephadex G-10, mobile phase:phosphate buffer) and diluted with the same phosphate buffer to give a stock solution with a lipid concentration of 11 mM (assuming 100% of lipid was incorporated into liposomes).
Fluorimetric Transport Assays. pH-Assisted Transport Assays. Typically, 100 μL of HPTS-loaded vesicles (stock solution) was suspended in 1.85 mL of the corresponding buffer and placed into a fluorimetric cell. HPTS emission at 510 nm was monitored with excitation wavelengths at 403 and 460 nm simultaneously. During the experiment, 20 μL of a 0-10 mM THF solution of the compound of interest was added through an injection port, followed by injection of 21 μL of 0.5 M aqueous NaOH. Addition of the NaOH caused a pH increase of approximately 1 pH unit in the extravesicular buffer. Maximal changes in dye emission were obtained at the end of each experiment by lysis of the liposomes with detergent (40 μL of 5% aqueous Triton x100). The final transport trace was obtained as a ratio of the emission intensities monitored at 460 and 403 nm and normalized to 100% of transport.

Marks after values point to notes of the source that are not given here.

For the compound `CCCCNC(=O)COc1ccccc1Cc1cccc(Cc2ccccc2OCC(=O)NCCCC)c1OCC(=O)NCCCC` [trimer 3, Tris-(N-butyl-2-phenoxyacetamide)], in experiment [1] (100 mM NaCl inside and outside), the “relative transport activity within the series 1-6” value is recorded as “generally the most active”. For the same compound, the transport activity entry in experiment [1] (100 mM NaCl inside and outside, concentrations as low as 0.5 mol % (5 μm)) is “rapid exchange between extra- and intravesicular electrolytes”. The “transport activity in liposomes symmetrically loaded with sodium sulfate” value in experiment [1] (10 mol % (50 μm)) is reported as “no transport activity was detected”.
As to `CCCCNC(=O)COc1c2cccc1Cc1cccc(c1OCC(=O)NCCCC)Cc1cccc(c1OCC(=O)NCCCC)Cc1cccc(c1OCC(=O)NCCCC)C2` [calix[4]arene tetrabutylamide 2, Calix[4]arene tetrabutylamide], in experiment [2], the “transport activity when buffer changed from NaCl to Na2SO4” value is listed as “essentially complete loss of transport activity” and the “ion transport in sulfate buffers” value was “not mediated”. Moreover, the “Initial Pseudo-first Order Transport Rate Constants, Na2SO4” value in experiment [2] (5 μM, 100 mM Na2SO4 inside pH 6.4 and outside pH 7.4, not corrected for unmediated exchange) was 1.1^b,d ×10^−3 s^−1. Besides, the “Initial Pseudo-first Order Transport Rate Constants, CsCl” value in experiment [2] (5 μM, 100 mM NaCl inside pH 6.4, 100 mM CsCl outside pH 7.4, not corrected for unmediated exchange) is 7.7^b,c ×10^−3 s^−1. The “Initial Pseudo-first Order Transport Rate Constants, KCl” value in experiment [2] (5 μM, 100 mM NaCl inside pH 6.4, 100 mM KCl outside pH 7.4, not corrected for unmediated exchange) is 6.4^b,c ×10^−3 s^−1. Also, in experiment [2] (5 μM, 100 mM NaCl inside pH 6.4, 100 mM NaCl outside pH 7.4, not corrected for unmediated exchange), the “Initial Pseudo-first Order Transport Rate Constants, NaCl” value is reported as 6.8^b,c ×10^−3 s^−1. In addition, the “cation selectivity of ion transport” value in experiment [2] (buffers containing Na, K or Cs) is reported as “nonselective toward the cation”. Also, in experiment [2] (chloride versus sulfate buffers), the anion transport selectivity entry is reported as “pronounced Cl^− over HSO4^− transport selectivity”. The transport activity entry in experiment [2] (extravesicular Na, K or Cs chloride, ligand:lipid ratio of 1:100) is “rapid exchange of intra-and extravesicular electrolytes”. Besides, the “ion transport in sulfate buffers” value in experiment [2] (listed as calix[4]arene tetrabutylamide) is reported as “No significant transport”.
